Data taken from patent US20220175889A1, “NEW DOSAGE REGIMEN FOR INHALED VASOACTIVE INTESTINAL POLYPEPTIDE” (priority 2020, published 2022).

How the values were obtained:
[1] = test system: patients with COVID-19 pulmonary involvement
[2] = type: physicochemical; conditions: M-neb mobile mesh nebulizer MN-300/9
[3] = test system: histamine-induced bronchoconstriction; conditions: single 375 μg inhaled; cited from earlier work

CC[C@H](C)[C@H](NC(=O)[C@H](CO)NC(=O)[C@H](CC(N)=O)NC(=O)[C@H](CC(C)C)NC(=O)[C@H](Cc1ccc(O)cc1)NC(=O)[C@H](CCCCN)NC(=O)[C@H](CCCCN)NC(=O)[C@@H](NC(=O)[C@H](C)NC(=O)[C@H](CCSC)NC(=O)[C@H](CCC(N)=O)NC(=O)[C@H](CCCCN)NC(=O)[C@H](CCCNC(=N)N)NC(=O)[C@H](CC(C)C)NC(=O)[C@H](CCCNC(=N)N)NC(=O)[C@@H](NC(=O)[C@H](Cc1ccc(O)cc1)NC(=O)[C@H](CC(N)=O)NC(=O)[C@H](CC(=O)O)NC(=O)[C@@H](NC(=O)[C@H](Cc1ccccc1)NC(=O)[C@@H](NC(=O)[C@H](C)NC(=O)[C@H](CC(=O)O)NC(=O)[C@H](CO)NC(=O)[C@@H](N)Cc1c[nH]cn1)C(C)C)[C@@H](C)O)[C@@H](C)O)C(C)C)C(=O)N[C@@H](CC(C)C)C(=O)N[C@@H](CC(N)=O)C(N)=O [Aviptadil]
Tolerability ([1]; human, in vivo): well tolerated
Distribution of AEs (%) ([1]; share of the 47 adverse events observed in Treatment Group, 16 patients treatment, 13 placebo): 40.43%
Entering Intensive Care (%) ([1]; treatment group, Age >= 60): 25%
Mass Median Aerodynamic Diameter [2]: 4±0.16 μm
Protection against histamine-induced bronchoconstriction [3]: the activity could not be shown
Side effects [3]: no side effects were reported
